Patent US20100290989A1, “COMPOSITIONS AFFECTING HYALURONIC ACID MEDIATED ACTIVITY” (LONDON HEALTH SCIENCES CENTRE RESEARCH INC., priority 2007, published 2010)
“Also recorded” adds a separate entry of the source.

Key:
[1] = Isothermal calorimetry (ITC) of peptide binding to low molecular weight HA
Procedure: (§1) The binding of soluble peptide 15-1 to HA was next evaluated by isothermal calorimetry (ITC), to estimate a binding constant for the peptide (FIG. 2, the two lines represent two independent determinations in the figure). A buffered solution of 0.9 mM low molecular weight HA (10 kD average molecular weight) was injected into to a 0.6 mM peptide 15-1 solution. […] This peptide (and the scrambled control) have been further characterized in biological systems.

[2] = Isothermal calorimetry (ITC) of peptide binding to high molecular weight HA; conditions: high molecular weight HA used instead of fragmented HA
Description: as §1, with “figure).” for “figure). A buffered solution of 0.9 mM low molecular weight HA (10 kD average molecular weight) was injected into to a 0.6 mM peptide 15-1 solution.”

prostate tumor cells = test: In vivo growth of subcutaneously injected, peptide-pretreated tumor cells; set-up: species or system NOD.CB17 SCID mice; conditions: cells pretreated with 50 micromolar peptide, tumors harvested after 28 days
Procedure: Studies have also been performed to determine if peptide 15-1 can inhibit tumor growth in a more complex microenvironment (FIG. 5). One hundred thousand tumor cells pretreated with 50 micromolar peptide 15-1 were injected subcutaneously into NOD.CB17 SCID mice. Twenty eight days later the mice were euthanized and the tumors harvested and analyzed.

[3] = system: wild-type dermal fibroblast cells; test: Scratch wound assay, wild-type fibroblast migration; format: cell-based; conditions: migration stimulated by 30-mer HA
Procedure: (§2) Scratch wound assays with Rhamm null and wildtype fibroblast cells were used to evaluate the biological properties of peptide 15-1.
(§3) Scratch wound assays are commonly used to assess the effects of drugs and drug candidates on cellular migration associated with wound closing. In a typical scratch wound assay, cells are plated to confluence in a multiwell plate. A single scratch wound is created in each well. The plate is then imaged at fixed time intervals. Cell number in the area of the scratch wound can be quantified to evaluate the characteristics of wound closing in the presence of pharmacological agents.
(§4) The lack of HA induced migration was reversed by re-expression of Rhamm (FIG. 3a).
The scratch wound assay was also used to determine the ability of various sizes of HA oligomers to promote migration of wild-type dermal fibroblast cells (FIGS. 8a and 8b).

MDA-MB-231 cells = test: Scratch wound assay, breast cancer cell migration; format: cell-based, human; conditions: 30 ug/ml, 24 hrs, versus scrambled control peptide
Procedure: A confluent monolayer of MDA-MB-231 cells were scratched using a pipette tip. Cells were incubated in medium containing either peptide 15-1 (STMMSRSHKTRSHHV) or scrambled control peptide (HKSVSRHTSMRHSTM) (30 ug/ml). After 24 hrs, cells that migrated into the scratch were counted.

[4] = system: Prostate tumor PC3M-LN4 cells; test: Methylcellulose assay, anchorage-independent growth of prostate tumor cells with peptide; format: cell-based; conditions: 50 micromolar peptide; PC3M-LN4 in methylcellulose; 7 days
Procedure: A methylcellulose assay was adapted to evaluate anchorage-independent growth of prostate tumor cells in vitro. This assay offers advantages over agarose since the gels can be easily solubilized, allowing for recovery and quantification/biochemical characterization of cells at the end of the experiment. Prostate tumor PC3M-LN4 cells which synthesize large amounts of HA grow in this assay to form large multicellular colonies. Cells were recovered and counted after 7 days of incubation.
Fifteen thousand PC3M-LN4 cells were seeded into methylcellulose in the presence of 50 micromolar of the HA binding peptide 15-1 or scrambled peptide. Each peptide was mixed with PC3M-LN4 cells prior to culturing these cells in methylcellulose (FIG. 4). Culturing these cells in the presence of 50 micromolar peptide 15-1 inhibits anchorage-independent growth by 80%, which is highly statistically significant (FIG. 4).

MDA-MB 231 cells = test: Methylcellulose assay, anchorage independent growth of breast cancer cells; format: cell-based, human; conditions: MDA-MB 231 in methylcellulose; 30 ug/ml; one week; versus scrambled control peptide
Procedure: MDA-MB 231 cells were grown in Methylcellulose containing either peptide 15-1 (STMMSRSHKTRSHHV) or scrambled control peptide (HKSVSRHTSMRHSTM) (30 ug/ml). One week later, cells were counted.

[5] = system: Rhamm null (Rh−/−) fibroblasts; test: Scratch wound assay, Rhamm null fibroblast migration; format: cell-based; conditions: with HA
Procedure: as §2, §3, §4

interaction with HA ([1]; low molecular weight HA (10 kD average), same conditions as peptide 15-1)	interaction with high molecular weight HA [2]	Kd ([1]; 0.9 mM low molecular weight HA (10 kD average) injected into 0.6 mM peptide solution, estimated, read-out: binding constant (Kd)) [nM]	Sequence	tumor growth (prostate tumor cells)	inhibition of HA stimulated migration of wildtype cells [3]	scratch wound induced migration of human breast cancer cells (MDA-MB-231 cells)	inhibition of anchorage-independent growth [4] [%]	anchorage independent growth of human breast cancer cells (MDA-MB 231 cells)	inhibition of migration of Rhamm null cells [5]
did not interact with HA			HKSVSRHTSMRHSTM [scrambled peptide, scrambled counterpart of peptide 15-1 used as a control, reference compound]						
	greatly reduced	100	STMMSRSHKTRSHHV [peptide 15-1]	decrease in tumor growth	sensitive to the inhibitory effects; also recorded: inhibited	reduces scratch wound induced migration	80	reduce anchorage independent growth	resistant to the inhibitory effects
